Reference: patent publication US9988626B2, “Neurocalcin delta inhibitors and therapeutic and non-therapeutic uses thereof” (Universität Zu Köln, priority 2013, dated 2018)
“Also recorded” adds a separate entry of the source.

Tests used:
zebrafish embryos = assay: Zebrafish motor axon phenotype (znp-1 staining) after morpholino or mRNA injection; format: in vivo; conditions: 34 hpf zebrafish, smn MO 4 ng, ncald MO 2 ng
Experimental: Zebrafish were dechorionated and fixed in 4% PFA-PBS 34 hours after fertilization. Collagenase digest was performed to permeabilize the larvae for the following antibody staining. In brief, fish were stained at 4° C. over night in 500 μl PBS-T/10% FCS containing znp-1 antibody (1:300, Hybridoma Bank). After all-day washing in PBS-T/1% FCS/1% BSA (changing solution every hour) fish were stained in PBS-T/1% DMSO/10% FCS containing secondary donkey anti-mouse antibody labelled with Alexafluor 488 (1:200, Invitrogen). After repeated washing, fish were stored in 80% glycerol/20% PBS in the dark at 4° C. Microscopic analysis of fish was performed in 80% glycerol on micro slides using a fluorescence microscope (Axioskop 2, Zeiss). The length of each of the first ten motoraxons behind the yolk was analyzed and evaluated. For NSC34 cell staining cells were fixed in 4% PFA for 15 min at RT. Following fixation, cells were rinsed 1× in PBS for 5 min. After another washing step with PBS, cells were permeabilized in 0.2% Triton X in PBS for 5 min. […]
The used antisense Morpholino (MO) was designed against the translational start codon of the ncald gene (Gene Tools, LLC): 5′-[…]-3′ (SEQ ID NO: 2). […] Six hours after injection embryos were sorted according to homogeneity of the rhodamine fluorescence signal reflecting the equal distribution of the injected MO solution. […]

zebrafish larvae = assay: TEM analysis of synaptic cleft width of zebrafish NMJs; format: in vivo
Experimental: Whole zebrafish larvae were fixed in 4% PFA for 30 min and postfixed in 0.6% glutaraldehyde for 24 h. Larvae were embedded in Epoxy resin (Plano) and cross sections were performed according to previously described and adapted TEM protocol (Voigt et al. 2010). Thickness of semi-thin and ultra-thin sections was 0.5 μm and 0.1 μm, respectively. Image acquisition was performed as described in the supplement. Image acquisition was performed using the TEM CM10 (Philips) microscope with the Orius SC200W 1 Gatan camera and Digital Micrograph software.
48 hpf zebrafish larvae were fixed in 4% PFA for 30 min and postfixed in 0.6% glutaraldehyde for another day. Gold-labeled secondary antibodies were used for co-localization studies of Ncald and Clathrin. Image acquisition of ultra-thin sections with a thickness of […] was performed using the TEM CM10 (Philips) microscope with the Orius SC200W 1 Gatan camera and the Digital Micrograph software.
48 hpf zebrafish larvae were fixed in 4% PFA for […] and postfixed in 0.6% glutaraldehyde for another day. Samples were then prepared and embedded in resin as previously described. The thickness of semi-thin and ultra-thin sections was […], respectively. For immunogold stainings, in brie pre-stained sections were blocked and afterwards incubated with primary antibodies (anti-clathrin, 1:50, anti-NCALD, 1:50) and washed in PBS; after that sections were stained with gold-labelled secondary antibodies (donkey anti-mouse 6 nm gold, 1:100; goat anti-rabbit 20 nm gold 1:100; Abeam). Image acquisition was performed using the TEM CM10 (Philips) microscope with the Orius SC200W 1 Gatan camera and the Digital Micrograph software.

[1] = MO-injected 48 hpf fish, N=3, n=5 (FIG. 17E)

## smn MO: previously published morpholino knocking down zebrafish smn, CGACATCTTCTGCACCATTGGC (all phosphorodiamidate morpholino (PMO))
Zebrafish embryos
  Motor axon phenotype (truncation, branching): high numbers of severely truncated motor neuron axons; also recorded: massive motor axon-specific outgrowth defects
Zebrafish larvae; Example 1, FIG. 8, 34 hpf zebrafish larvae
  Width of synaptic cleft / NMJ maturation: significant reduction of the width of the synaptic cleft
Zebrafish larvae; [1]
  Width of synaptic cleft, mean: 30.26 nm
  Width of synaptic cleft, median: 23.51 nm
